From US20110160123A1, “TARGETING THE EFFLUX SYSTEMS OF MYCOBACTERIUM TUBERCULOSIS” (THE UAB RESEARCH FOUNDATION, priority 2008, published 2011) come the findings set out here.

For test [1], the system named is M. bovis BCG ML1034 mutant (bcg0231/rv0194 overexpressed). It is filed as cell-based.
The test system of test [2] is M. bovis BCG transposon mutants. The class given is cell-based.
In test [3] the test system is M. smegmatis overexpressing the rv0194 gene of M. tuberculosis (SMR5/pML655). Briefly: microbe, parasite or virus in culture. It is filed as cell-based. As to conditions: for MIC: Mycolicibacterium smegmatis.
Test [4] has as its system M. tuberculosis mctB mutant ML256 (Δrv1698). The class given is cell-based.
Test [5] relates to Mtb mctB mutant ML256. Also on record: species or system mice. Particulars: mouse, in vivo.
The mark [6] stands for this setting: read-out: MIC rv0194 overexpression.

≈ marks a conversion by molar mass, not a printed value. Read-outs that look alike come from different tables or passages of the source. A value given as a limit tells only on which side of the number the result lay.

In the case of `CC1(C)S[C@@H]2[C@H](NC(=O)[C@H](N)c3ccccc3)C(=O)N2[C@H]1C(=O)O` [Ampicillin], in test [1], the MIC of amp. was determined as 2000 mg/mL and the “Resistance Factor” value turned out to be 32. Also, in test [2], the “MIC of ampicillin, completely resistant mutants” value is ≥ 2,000 μg/ml; the “MIC of ampicillin, mutants excluded from further analysis” value was “lower than 250 μg/ml”; the “MICs of ampicillin for all transposon mutants” value is listed as “higher than 62.5 μg/ml”. The “Resistance Factor” value in test [3] amounted to 2. Also, in test [3] (setting [6]), the MIC came out at 0.25 mg/mL (≈ 715 µM).

Consider `Cc1cc(-c2ccc(S(=O)(=O)O)cc2)c2ccc3c(-c4ccc(S(=O)(=O)O)cc4)cc(C)nc3c2n1` [Bathocuproine disulfonate], for which the “protection from the toxic effects of CuSO4” value in test [4] is “protects Mtb from the toxic effects of CuSO4”.

Take `O=C(N[C@H](CO)[C@H](O)c1ccc([N+](=O)[O-])cc1)C(Cl)Cl` [Chloramphenicol]: in test [1], the “MIC ML1034” value came out at 0.512 mg/mL (≈ 1580 µM) and the “Resistance Factor” value amounted to 64. In test [3], the “Resistance Factor” value is reported as 1. For the same compound, the MIC in test [3] (setting [6]) came to 0.032 mg/mL (≈ 99 µM).

`O=S(=O)([O-])[O-].[Cu+2]` [CuSO4]: in test [4], the “growth rate on plates with CuSO4” value is recorded as “severely reduced the growth rate”. The “effect of dietary CuSO4 on persistence of the mctB mutant in lungs” value in test [5] was “aggravated the persistence defect”.

Turning to `CC[C@H]1OC(=O)[C@H](C)[C@@H](O[C@H]2C[C@@](C)(OC)[C@@H](O)[C@H](C)O2)[C@H](C)[C@@H](O[C@@H]2O[C@H](C)C[C@H](N(C)C)[C@H]2O)[C@](C)(O)C[C@@H](C)C(=O)[C@H](C)[C@@H](O)[C@]1(C)O` [Erythromycin], the “Resistance Factor” value in test [3] turned out to be 4. Besides, in test [3] (setting [6]), the MIC came out at 0.01 mg/mL (≈ 13.6 µM).

For `CO[C@@H]1[C@@H](OC(N)=O)[C@@H](O)[C@H](Oc2ccc3c(O)c(NC(=O)c4ccc(O)c(CC=C(C)C)c4)c(=O)oc3c2C)OC1(C)C` [Novobiocin], in test [3], the “Resistance Factor” value was found to be 2. For the same compound, in test [3] (setting [6]), the MIC is 0.008 mg/mL (≈ 13.1 µM).

For the compound `[H]/N=C(/N)N[C@H]1[C@H](O)[C@@H](O)[C@H](O[C@@H]2O[C@@H](C)[C@](O)(C=O)[C@H]2O[C@@H]2O[C@@H](CO)[C@H](O)[C@@H](O)[C@@H]2NC)[C@@H](N/C(N)=N\[H])[C@@H]1O` [Streptomycin], in test [1], the “MIC ML1034” value stood at 0.016 mg/mL (≈ 27.5 µM) and the “Resistance Factor” value was determined as 32.

Regarding `CN(C)[C@@H]1C(=O)C(C(N)=O)=C(O)[C@@]2(O)C(=O)C3=C(O)c4c(O)cccc4[C@@](C)(O)[C@H]3C[C@@H]12` [Tetracyclin], the “MIC ML1034” value in test [1] is more than 0.016 mg/mL. In test [3], the “MIC rv0194 overexpression” value was 0.0003 mg/mL (≈ 0.675 µM) and the “Resistance Factor” value amounted to 1.

With `CN[C@H](CC(C)C)C(=O)N[C@H]1C(=O)N[C@@H](CC(N)=O)C(=O)N[C@H]2C(=O)N[C@H]3C(=O)N[C@H](C(=O)N[C@H](C(=O)O)c4cc(O)cc(O)c4-c4cc3ccc4O)[C@H](O)c3ccc(c(Cl)c3)Oc3cc2cc(c3O[C@@H]2O[C@H](CO)[C@@H](O)[C@H](O)[C@H]2O[C@H]2C[C@](C)(N)[C@H](O)[C@H](C)O2)Oc2ccc(cc2Cl)[C@H]1O` [Vancomycin], the “MIC ML1034” value in test [1] was 0.02 mg/mL (≈ 13.8 µM). The “Resistance Factor” value in test [3] is 2. Also, the MIC in test [3] (setting [6]) amounted to 0.0025 mg/mL (≈ 1.73 µM).

In the case of `CC[n+]1c(-c2ccccc2)c2cc(N)ccc2c2ccc(N)cc21` [ethidium bromide], in test [3] (read-out: MIC of ethidium bromide), the MIC came to 0.0025 mg/mL.
